Patent publication US20090215857A1 (Pfizer Products Inc., priority 2005, published 2009)
Where a name gives a salt, the structure may show the parent alone.

Key:
[1] = tested on: capsaicin-induced mechanical allodynia; assay: rat model of capsaicin-induced mechanical allodynia; type: in vivo; conditions: male Sprague-Dawley rats; 10 mg/kg subcutaneously; PWT 1 hour after single dose; mean of eight animals, normalized for vehicle
Experimental: Compounds of the present invention may be assayed for their ability to alleviate capsaicin-induced mechanical allodynia in a rat (e.g., Sluka (2002) J of Neuroscience, 22(13): 5687-5693). For example, a rat model of capsaicin-induced mechanical allodynia was carried out as follows:
On day 0, male Sprague-Dawley rats (˜150 g) in the dark cycle were placed in suspended wire-bottom cages and allowed to acclimate for 0.5 hour in a darkened, quiet room. The day 0 paw withdrawal threshold (PWT) was determined on the left hind paw by Von Frey hair assessment using the Dixon up and down method. After assessment, the plantar muscle of the right hind paw was injected with 100 μl capsaicin (0.25% (w/v) in 10% ethanol, 10% Tween 80, in sterile saline). On day 6 the PWT of the left hind paw (contralateral from injection site) was determined for each animal. Animals from the day 6 prereads with PWT ≦11.7 g were considered allodynic responders and were regrouped so that each cage had similar mean PWT values. On day 7, responders were dosed subcutaneously with 10 mg compound/kg body weight, or with vehicle alone. The vehicle was phosphate buffered saline containing 2% Cremophor® EL (BASF). The contralateral PWT values were determined at 1 hour after the single dose, with the investigator blinded to the dosing scheme.
For each animal, the day 6 PWT value was subtracted from the 1 hour PWT value to give a delta PWT value that represents the change in PWT due to the 1 hour drug treatment. In addition, the day 6 PWT was subtracted from the day 0 PWT to give the baseline window of allodynia present in each animal.
The mean percent Inhibition of allodynia values (for eight animals assayed for each compound)+/−the standard error of the mean (SEM) are shown in Table 15.

[2] = target: T1, human serotonin transporter (Homo sapiens, UniProt P31645); assay: hSERT receptor binding ([125I]-RTI-55 radioligand); conditions: membranes of HEK-293 cells transfected with human serotonin transporter cDNA; 50 pM [125I]-RTI-55; IC50 converted by Cheng-Prusoff; read-out: SERT Ki
T1 construct: expressed in transfected cells; host or cells: HEK-293
Method in brief: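 HEK-293 membranes expressing transfected human transporter were incubated with 50 pM [125I]-RTI-55 and test compound (10^−5 to 10^−12 M) in Krebs-HEPES pH 7.4 for 90 min at RT.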

[3] = target: T2, human norepinephrine transporter (Homo sapiens, UniProt P23975); assay: hNET receptor binding ([125I]-RTI-55 radioligand); conditions: membranes of HEK-293 cells transfected with human norepinephrine transporter cDNA; 50 pM [125I]-RTI-55; IC50 converted by Cheng-Prusoff; read-out: NET Ki
T2 construct: expressed in transfected cells; host or cells: HEK-293
Method in brief: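 Membranes from HEK-293 cells expressing human NET were incubated 90 min at room temperature with 50 pM [125I]-RTI-55 and test compound (10^−5M to 10^−12M) in Krebs-HEPES, pH 7.4.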

[4] = target: T3, neuronal α-BGTX-insensitive central nicotinic receptor (Rattus norvegicus, UniProt P09483+P12390); assay: [3H]cytisine radioligand binding assay, rat cerebral cortex; conditions: 10 μM compound; 1.5 nM [3H]cytisine; rat cerebral cortex membrane homogenates; read-out: Percent inhibition at 10 μM of compound (control radioligand specific binding)
T3 construct: Membrane homogenates of cerebral cortex (800 μg protein) are incubated; from tissue; host or cells: rat cerebral cortex membrane homogenates
Experimental: Several compounds were evaluated for their affinity for the neuronal α-BGTX-insensitive central nicotinic receptor in the rat cerebral cortex determined in a radioligand binding assay.
Experimental protocol Membrane homogenates of cerebral cortex (800 μg protein) are incubated for 75 min at 4° C. with 1.5 nM [^3H]cytisine in the absence or presence of the test compound (10 μM in a buffer containing 50 mM Tris-HCl (pH 7.4), 120 mM NaCl, 5 mM KCl, 1 mM MgCl2 and 2 mM CaCl2.
Nonspecific binding is determined in the presence of 10 μM nicotine.
Following incubation, the samples are filtered rapidly under vacuum through glass fiber filters (Filtermat B, Wallac) presoaked with 0.3% PEI (polyethyleneimine) and rinsed several times with ice-cold 50 mM Tris-HCl using a 48-sample cell harvester (Mach II, Tomtec). The filters are dried then counted for radioactivity in a scintillation counter (Betaplate 1204, Wallac) using a solid scintillator (Meltilex B/HS, Wallac).
The results are expressed as a percent inhibition of the control radioligand specific binding.
The standard reference compound is nicotine, which is tested in each experiment at several concentrations to obtain a competition curve from which its IC50 is calculated.

T1 sequence (P31645 whole entry): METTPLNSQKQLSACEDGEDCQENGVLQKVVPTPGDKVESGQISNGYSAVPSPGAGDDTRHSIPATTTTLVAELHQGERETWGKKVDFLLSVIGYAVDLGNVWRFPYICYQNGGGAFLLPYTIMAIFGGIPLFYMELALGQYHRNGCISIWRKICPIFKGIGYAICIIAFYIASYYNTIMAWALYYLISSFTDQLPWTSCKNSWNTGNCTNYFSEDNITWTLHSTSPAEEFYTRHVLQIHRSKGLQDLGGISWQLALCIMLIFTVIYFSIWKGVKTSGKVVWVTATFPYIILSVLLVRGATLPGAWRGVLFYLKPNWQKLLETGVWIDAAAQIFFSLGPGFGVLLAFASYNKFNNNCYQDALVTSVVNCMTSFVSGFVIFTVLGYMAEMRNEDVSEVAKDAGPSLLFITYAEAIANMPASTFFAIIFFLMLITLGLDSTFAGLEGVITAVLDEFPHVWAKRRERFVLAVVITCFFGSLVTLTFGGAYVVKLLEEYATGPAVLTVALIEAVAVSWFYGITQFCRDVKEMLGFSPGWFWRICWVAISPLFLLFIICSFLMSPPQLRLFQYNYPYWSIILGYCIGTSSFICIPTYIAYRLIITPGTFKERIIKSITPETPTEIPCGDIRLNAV
T2 sequence (P23975 whole entry): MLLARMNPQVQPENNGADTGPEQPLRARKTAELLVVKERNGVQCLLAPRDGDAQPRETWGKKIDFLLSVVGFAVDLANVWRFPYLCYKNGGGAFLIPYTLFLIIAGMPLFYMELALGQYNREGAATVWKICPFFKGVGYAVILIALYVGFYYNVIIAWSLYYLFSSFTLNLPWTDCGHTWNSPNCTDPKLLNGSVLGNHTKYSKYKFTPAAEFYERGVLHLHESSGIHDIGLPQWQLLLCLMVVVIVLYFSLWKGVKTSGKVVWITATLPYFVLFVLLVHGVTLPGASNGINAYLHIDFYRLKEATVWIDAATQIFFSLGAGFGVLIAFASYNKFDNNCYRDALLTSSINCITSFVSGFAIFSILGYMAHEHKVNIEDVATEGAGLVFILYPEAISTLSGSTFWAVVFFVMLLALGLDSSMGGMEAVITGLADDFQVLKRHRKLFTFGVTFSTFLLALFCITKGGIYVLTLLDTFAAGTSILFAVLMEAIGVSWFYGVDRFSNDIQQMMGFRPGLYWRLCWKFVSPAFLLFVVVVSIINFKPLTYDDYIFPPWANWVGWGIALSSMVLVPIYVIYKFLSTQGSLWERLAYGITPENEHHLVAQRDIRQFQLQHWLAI
T3 sequence (P09483 31-630): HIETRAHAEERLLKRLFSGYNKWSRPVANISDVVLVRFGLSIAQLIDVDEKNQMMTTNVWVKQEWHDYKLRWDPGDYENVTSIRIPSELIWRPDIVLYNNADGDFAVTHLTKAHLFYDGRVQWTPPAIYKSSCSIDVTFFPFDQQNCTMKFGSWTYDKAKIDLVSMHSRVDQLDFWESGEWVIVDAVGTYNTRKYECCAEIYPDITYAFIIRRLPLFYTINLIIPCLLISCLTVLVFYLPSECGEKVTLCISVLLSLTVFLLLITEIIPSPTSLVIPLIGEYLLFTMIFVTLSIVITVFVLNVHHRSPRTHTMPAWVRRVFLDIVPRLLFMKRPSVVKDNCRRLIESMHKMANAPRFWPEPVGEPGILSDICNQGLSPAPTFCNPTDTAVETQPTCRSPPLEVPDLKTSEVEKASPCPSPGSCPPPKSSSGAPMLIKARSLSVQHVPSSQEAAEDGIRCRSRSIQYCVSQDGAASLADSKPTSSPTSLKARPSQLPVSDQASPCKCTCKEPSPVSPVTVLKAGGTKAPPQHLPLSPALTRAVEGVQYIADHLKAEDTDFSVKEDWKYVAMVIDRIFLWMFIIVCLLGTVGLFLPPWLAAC
T3 sequence (P12390 25-500): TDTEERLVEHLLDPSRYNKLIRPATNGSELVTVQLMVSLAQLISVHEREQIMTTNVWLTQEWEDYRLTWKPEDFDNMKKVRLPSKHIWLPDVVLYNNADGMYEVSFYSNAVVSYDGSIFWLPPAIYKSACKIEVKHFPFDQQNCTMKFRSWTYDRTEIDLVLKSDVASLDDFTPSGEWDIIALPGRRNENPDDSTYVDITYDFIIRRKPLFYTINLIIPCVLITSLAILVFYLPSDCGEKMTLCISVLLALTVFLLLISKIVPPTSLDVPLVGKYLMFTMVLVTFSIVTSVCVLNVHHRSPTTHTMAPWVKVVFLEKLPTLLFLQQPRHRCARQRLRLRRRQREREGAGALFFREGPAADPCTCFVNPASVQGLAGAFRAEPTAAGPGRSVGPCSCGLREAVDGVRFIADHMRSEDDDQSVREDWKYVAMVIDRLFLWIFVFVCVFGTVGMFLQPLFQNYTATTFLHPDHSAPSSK

Compound	% INHIBITION +/− SEM (inhibition of allodynia) [1]	Ki [2] [nM]	Ki [3] [nM]	inhibition at 10 µM [4] [%]
Fc1ccc(-c2ccccc2CO[C@H]2CCNC2)c(F)c1 [Example A-1, (S)-3-(2′,4′-Difluoro-biphenyl-2-ylmethoxy)-pyrrolidine fumarate]	40.90 +/− 10.2%	103	10.9	
Fc1ccc(-c2ccc(F)cc2CO[C@H]2CCNC2)c(F)c1.O=C(O)/C=C/C(=O)O [Example A-3, (S)-3-(4,2′,4′-Trifluoro-biphenyl-2-ylmethoxy)-pyrrolidine fumarate]	17.40 +/− 9.9%	134	10.8	
Cl.Fc1ccc(-c2cccc(F)c2F)c(CO[C@H]2CCNC2)c1 [Example A-4, (S)-3-(4,2′,3′-Trifluoro-biphenyl-2-ylmethoxy)-pyrrolidine hydrochloride]	30.20 +/− 1.8%	139	11.2	
Fc1cccc(-c2ccccc2CO[C@H]2CCNC2)c1F.O=C(O)/C=C/C(=O)O [Example A-6, (S)-3-(2′,3′-Difluoro-biphenyl-2-ylmethoxy)-pyrrolidine fumarate]	66.20 +/− 7.8%	65.6	12.9	
Fc1cc(F)cc(-c2ccccc2CO[C@H]2CCNC2)c1 [Example A-17, (S)-3-(3′,5′-Difluoro-biphenyl-2-ylmethoxy)-pyrrolidine hydrochloride]		15.1	93.5	≤ 21
FC(F)(F)c1cccc(-c2ccccc2CO[C@H]2CCNC2)c1 [Example A-18, (S)-3-(3′-Trifluoromethyl-biphenyl-2-ylmethoxy)-pyrrolidine hydrochloride]		13	103	≤ 21
COc1cccc(-c2ccc(F)cc2CO[C@H]2CCNC2)c1 [Example D-114, (S)-3-(4-Fluoro-3′-methoxy-biphenyl-2-ylmethoxy)-pyrrolidine]		60	145	
COc1ccc(-c2ccc(F)cc2CO[C@H]2CCNC2)cc1 [Example D-115, (S)-3-(4-Fluoro-4′-methoxy-biphenyl-2-ylmethoxy)-pyrrolidine]		606	674	
Fc1ccc(-c2cccc(-n3cccn3)c2)c(CO[C@H]2CCNC2)c1 [Example D-116, (S)-1-[4′-Fluoro-2′-(pyrrolidin-3-yloxymethyl)-biphenyl-3-yl]-1H-pyrazole]		38.7	688	
NC(=O)c1cccc(-c2ccc(F)cc2CO[C@H]2CCNC2)c1 [Example D-117, (S)-4′-Fluoro-2′-(pyrrolidin-3-yloxymethyl)-biphenyl-3-carboxylic acid amide]		2160	≥ 10000	
Clc1ncccc1-c1ccccc1CO[C@H]1CCNC1 [Example D-118, (S)-2-Chloro-3-[2-(pyrrolidin-3-yloxymethyl)-phenyl]-pyridine]		3560	≥ 10000	
CC(C)Oc1ncccc1-c1ccccc1CO[C@H]1CCNC1 [Example D-119, (S)-2-Isopropoxy-3-[2-(pyrrolidin-3-yloxymethyl)-phenyl]-pyridine]		2730	963	
CCOc1ncccc1-c1ccccc1CO[C@H]1CCNC1 [Example D-120, (S)-2-Ethoxy-3-[2-(pyrrolidin-3-yloxymethyl)-phenyl]-pyridine]		4230	571	
Nc1ncccc1-c1ccccc1CO[C@H]1CCNC1 [Example D-121, (S)-3-[2-(Pyrrolidin-3-yloxymethyl)-phenyl]-pyridin-2-ylamine]		5630	≥ 10000	
c1ccc(-c2cccc3ncccc23)c(CO[C@H]2CCNC2)c1 [Example D-122, (S)-5-[2-(Pyrrolidin-3-yloxymethyl)-phenyl]-quinoline]		769	659	
c1ccc(-c2cnc3[nH]ccc3c2)c(CO[C@H]2CCNC2)c1 [Example D-124, (S)-5-[2-(Pyrrolidin-3-yloxymethyl)-phenyl]-1H-pyrrolo[2,3-b]pyridine]		2730	7400	
N#Cc1cccc(-c2cc(F)ccc2F)c1CO[C@H]1CCNC1 [Example E-1, (S)-2′,5′-Difluoro-2-(pyrrolidin-3-yloxymethyl)-biphenyl-3-carbonitrile fumarate]		1120	336	
N#Cc1cccc(-c2ccc(F)cc2F)c1CO[C@H]1CCNC1 [Example E-2, (S)-2′,4′-Difluoro-2-(pyrrolidin-3-yloxymethyl)-biphenyl-3-carbonitrile fumarate]		3770	763	
N#Cc1cccc(-c2cccc(F)c2F)c1CO[C@H]1CCNC1 [Example E-3, (S)-2′,3′-Difluoro-2-(pyrrolidin-3-yloxymethyl)-biphenyl-3-carbonitrile fumarate]		1570	560	
(S)-1-{3-[2-Pyrrolidin-3-yloxymethyl)-phenyl]-pyridin-2-yl}-piperazine [Example D-125]		6930	≥ 10000	
